# ChEMBL document CHEMBL3988442, “University of Dundee, Small-Polar-MMV Screening Library” (2021)
# “And” between values parts separate entries of the source, which are not always exact repeats. Equal values may be shown once.
# What was measured:
# Lysine--tRNA ligase = Lysine--tRNA ligase (Plasmodium falciparum (isolate 3D7), UniProt Q8IDJ8); experiment: Pf-KRS-1 (Lysyl-RNA Synthetase-1, KRS-1, cytosolic KRS) from Plasmodium falciparum. Inhibitor assay, 384 well plate, luminescence read.; format: functional
# Sequence of Lysine--tRNA ligase (Q8IDJ8 whole entry): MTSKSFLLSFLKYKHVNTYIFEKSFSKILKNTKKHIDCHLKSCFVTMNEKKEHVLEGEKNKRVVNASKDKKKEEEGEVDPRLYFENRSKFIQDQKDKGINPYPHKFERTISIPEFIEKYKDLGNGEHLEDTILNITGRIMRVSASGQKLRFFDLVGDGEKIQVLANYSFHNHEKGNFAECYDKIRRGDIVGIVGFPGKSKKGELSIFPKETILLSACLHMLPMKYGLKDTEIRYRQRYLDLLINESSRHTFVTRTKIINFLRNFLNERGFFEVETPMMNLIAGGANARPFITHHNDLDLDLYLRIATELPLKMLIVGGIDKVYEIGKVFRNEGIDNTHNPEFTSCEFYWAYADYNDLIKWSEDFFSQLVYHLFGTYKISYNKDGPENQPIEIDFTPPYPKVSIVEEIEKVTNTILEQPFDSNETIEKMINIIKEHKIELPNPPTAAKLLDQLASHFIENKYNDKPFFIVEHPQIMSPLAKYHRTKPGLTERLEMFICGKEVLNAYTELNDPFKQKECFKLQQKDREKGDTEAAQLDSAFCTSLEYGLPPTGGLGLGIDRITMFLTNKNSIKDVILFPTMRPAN
# Histidine--tRNA ligase = biological target: T1, Histidine--tRNA ligase (Leishmania infantum, UniProt A4I591); experiment: Leishmania infantum Histidine tRNA synthetase (LdHisRS); format: functional
# T1 sequence (A4I591 whole entry): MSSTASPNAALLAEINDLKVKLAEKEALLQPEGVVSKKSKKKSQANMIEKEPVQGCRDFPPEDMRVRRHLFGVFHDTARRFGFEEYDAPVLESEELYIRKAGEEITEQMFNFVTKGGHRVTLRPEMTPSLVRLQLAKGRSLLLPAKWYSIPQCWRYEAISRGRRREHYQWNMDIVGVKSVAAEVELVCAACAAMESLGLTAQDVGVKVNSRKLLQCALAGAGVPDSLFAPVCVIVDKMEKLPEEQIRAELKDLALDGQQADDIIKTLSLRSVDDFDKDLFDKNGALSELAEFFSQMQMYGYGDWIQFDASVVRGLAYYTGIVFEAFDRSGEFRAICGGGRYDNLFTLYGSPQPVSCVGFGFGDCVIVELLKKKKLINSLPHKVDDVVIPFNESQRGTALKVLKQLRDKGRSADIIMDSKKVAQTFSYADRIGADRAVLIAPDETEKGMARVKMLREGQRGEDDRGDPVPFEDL
# [1] = biological target: T2, Coenzyme A biosynthesis bifunctional protein CoaBC (Mycobacterium tuberculosis (strain ATCC 25618 / H37Rv), UniProt P9WNZ1); experiment: Biomol Green assay for MtCoaBC inhibitor, OD650 read; format: functional
# T2 sequence (P9WNZ1 whole entry): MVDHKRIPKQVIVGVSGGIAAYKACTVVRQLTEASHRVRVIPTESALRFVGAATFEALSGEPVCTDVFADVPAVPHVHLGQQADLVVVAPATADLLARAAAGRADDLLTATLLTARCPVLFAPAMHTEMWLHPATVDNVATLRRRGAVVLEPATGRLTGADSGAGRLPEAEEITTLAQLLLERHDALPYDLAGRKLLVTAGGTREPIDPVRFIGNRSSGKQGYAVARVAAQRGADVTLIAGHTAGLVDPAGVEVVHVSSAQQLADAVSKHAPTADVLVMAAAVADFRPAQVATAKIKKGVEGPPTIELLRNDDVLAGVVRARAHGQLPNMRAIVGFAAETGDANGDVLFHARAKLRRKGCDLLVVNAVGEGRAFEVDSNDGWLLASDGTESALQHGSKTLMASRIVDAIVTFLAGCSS
# [2] = In vitro enzyme assay to detect hydrolysis of chlorophenol red-beta-D-[…] directly proportional to the number of Toxoplasma stably expressing beta-galactosidase; format: functional, organism-based, Toxoplasma gondii; conditions: for IC50: Toxoplasma gondii
# Plasmodium falciparum = experiment: Calibr Malaria Delayed Death Assay SOP; format: functional, organism-based
# Leishmania donovani = experiment: Leishmania intramacrophage assay; format: functional, organism-based; conditions: Leishmania donovani
# Tryptophan--tRNA ligase = Tryptophan--tRNA ligase (Mycobacterium tuberculosis (strain ATCC 25618 / H37Rv), UniProt P9WFT3); experiment: Biochemical assay for Mt-TrpRS; format: functional
# Sequence of Tryptophan--tRNA ligase (P9WFT3 whole entry): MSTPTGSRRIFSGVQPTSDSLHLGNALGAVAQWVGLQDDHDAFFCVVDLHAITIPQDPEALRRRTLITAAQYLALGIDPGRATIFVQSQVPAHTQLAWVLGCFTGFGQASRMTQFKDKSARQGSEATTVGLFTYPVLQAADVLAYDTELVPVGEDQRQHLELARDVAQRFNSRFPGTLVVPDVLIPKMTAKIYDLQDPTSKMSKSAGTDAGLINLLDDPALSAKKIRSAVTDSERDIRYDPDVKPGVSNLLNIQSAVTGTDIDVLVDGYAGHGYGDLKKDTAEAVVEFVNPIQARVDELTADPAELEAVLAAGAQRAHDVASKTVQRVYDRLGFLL
SMILES,IC50 (Lysine--tRNA ligase) [µM],IC50 [1],also measured
O=C1CC(c2ccc(O)cc2)c2c(c(C(=O)O)cn2-c2ccccc2)N1 (configuration not stated),> 50.1,–,–
COc1ccccc1CNc1ccc2nncn2n1,> 50.1,–,–
O=C(Cc1ccc(Cl)s1)Nc1ccc2c(c1)C(=O)NC2=O,> 50.1,–,–
O=C(NCc1cccs1)NCC(O)(c1cccs1)C1CC1 (configuration not stated),> 50.1,–,–
O=C(NCC1(O)CCCC1)c1ccc2nsnc2c1,> 50.1,–,–
Cc1ccc(-n2nnc(C(=O)NCC3CCCCC3)n2)cc1,> 50.1,–,–
COc1ccc(-n2nnc(C(=O)NCC3CCCCC3)n2)cc1,> 50.1,–,–
COc1ccc(C(=O)N2CCO[C@H]3[C@@H](OCC4CC4)CC[C@@H]32)cc1F,> 50.1,–,–
O=c1ccc2c(n1Cc1cccnc1)CCC(NCc1cccnc1)C2 (configuration not stated),> 50.1,–,–
CCn1cc2c(n1)C(COCC1CC1)CN(C(=O)c1cc(C)on1)C2 (configuration not stated),> 50.1,–,–
CCOCC1CN(C(=O)c2cnoc2C)Cc2cn(CC3CC3)nc21 (configuration not stated),> 50.1,–,–
CS(=O)(=O)N1C[C@H](C(=O)Nc2cnccn2)C[C@H]2OCC[C@H]21,> 50.1,–,–
CCCS(=O)(=O)N1CCOC2(COCCN(C(C)=O)C2)C1 (configuration not stated),> 50.1,–,–
CCN(C)C(=O)c1cc(-c2ccn(C(C)C)n2)n2ccccc12,> 50.1,–,–
CN1C(=O)CC2(CCN(S(=O)(=O)c3cccs3)CC2)c2ccccc21,> 50.1,–,–
O=C(c1cnccn1)N1C[C@@H](c2ccccc2)[C@@]2(CCNC2=O)C1,> 50.1,–,–
CN1C(=O)CC2(CCN(S(=O)(=O)C3CC3)CC2)c2ccccc21,> 50.1,–,–
COCC1CN(C(=O)Cc2ccccn2)Cc2ncn(C)c21 (configuration not stated),> 50.1,–,–
COCCCN1CC2(CCCCN2C(=O)C2CCCCC2)CC1=O (configuration not stated),> 50.1,–,–

SMILES,IC50 (Lysine--tRNA ligase) [µM],IC50 [1],also measured
CN(Cc1cccs1)C1CCC[C@@H]2CN(C(=O)c3cccn3C)C[C@H]12 (some centres not stated),> 50.1,–,–
CS(=O)(=O)N1CCC2(CC1)CN(CCn1cccn1)C(=O)CO2,–,> 50.1 µM,IC50 (Histidine--tRNA ligase): > 100 µM
Cc1nc(NC(C)C)nc2c1CN(Cc1nccn1C)CC2,> 50.1,–,–
O=c1[nH]c2c(c(=O)n1C1CCCCC1)CCC2Nc1ccccn1 (configuration not stated),> 50.1,–,–
Cc1cccc(NC2CCc3c2[nH]c(=O)n(C2CCCCC2)c3=O)c1C (configuration not stated),2.45,–,–
Cn1c(=O)c2c(n3ncnc13)NC(=O)CC2c1ccc(F)cc1 (configuration not stated),> 50.1,–,–
CCn1c(NCc2ccccn2)nc2c(C)nn(C)c2c1=O,–,> 30.2 µM,pIC50 [2]: < 4.3 and 4.672
Cc1nn(C)c(C)c1CN(C)C(=O)c1cc(NC(=O)C2CC2)n(C)n1,–,> 30.2 µM,IC50 [2]: > 50.1 µM
CCN(CC)CCNS(=O)(=O)c1cccc(CSC)c1,–,> 30.2 µM,pIC50 (Plasmodium falciparum): 6.161; IC50 (Plasmodium falciparum; Plasmodium falciparum): 551 nM
CCn1cc(-c2cc(C(F)(F)F)nc(NC3CCCC3)n2)c(C)n1,–,> 30.2 µM,IC50 (Leishmania donovani): > 50.1 µM; pIC50 [2]: 4.783; IC50 [2]: 17.8 µM
Cc1ccc(C(=O)Nc2c(C(=O)N(C)C)nn(C)c2C)cc1C,–,> 30.2 µM,IC50 [2]: > 50.1 µM
Cc1cc(N2CCC(O)CC2)nc(C2CCCN2C)n1 (configuration not stated),–,> 30.2 µM,IC50 (Histidine--tRNA ligase): 31 µM and 38.1 µM
Cc1cc(CCC2CN(CC3(O)CCCCC3)CCO2)ncn1 (configuration not stated),–,> 30.2 µM,IC50 (Tryptophan--tRNA ligase): > 195 µM
Cc1c[nH]nc1C1CCN(C(=O)C2CCOCC2)C1 (configuration not stated),–,> 30.2 µM,IC50 (Tryptophan--tRNA ligase): > 195 µM
O=C(c1c[nH]nn1)N1CCCC1C1CCCCC1 (configuration not stated),42.3,–,–
O=S(=O)(CCCn1cncn1)Cc1ccc(F)cc1Cl,–,4.13 µM and 4.68 µM,IC50 (Histidine--tRNA ligase): 10.5 µM and 17.6 µM
COc1ccc(-n2cc(CNC(=O)c3ccc[nH]3)nn2)cc1,–,> 30.2 µM,IC50 (Histidine--tRNA ligase): 33.4 µM and 45.8 µM
COc1ccc(-c2nc(CCNc3nnc(C)c(C)c3C#N)co2)cc1,–,> 30.2 µM,IC50 (Histidine--tRNA ligase): 58.1 µM and 60.7 µM
